Laboratory results taken from patent publication EP0791004B1, “ACYLATED BENZYLGLYCOSIDES AS INHIBITORS OF SMOOTH MUSCLE CELL PROLIFERATION” (AMERICAN HOME PRODUCTS CORPORATION, priority 1994, dated 1996).

Assays:
[1] = test system: Porcine Smooth Muscle Cell; experiment: Smooth muscle cell proliferation, 3H thymidine incorporation (serum stimulated); type: cell-based; conditions: for IC50: 3H thymidine incorporation, read-out: Porcine Smooth Muscle Cell Antiproliferation IC50
Description: The ability of the compounds of the present invention to inhibit smooth muscle cell proliferation was established using isolated aortic cells. Porcine aortas were received from a local slaughterhouse and were iced during transit. The aorta was scrupulously cleansed of fatty tissue and rinsed in sterile phosphate-buffered saline with 2% antibiotic/antimycotic (Gibco catalog # 600 - 5240 AG). The tissue was then digested in 10 - 15 mL of "Enzyme Mixture" containing collagenase type I, 165 U/mL; elastase type III, 15 U/mL; BSA, 2 mg/mL; and soybean trypsin inhibitor, 0.375 mg/mL followed by incubation at 37 °C under 5% CO2 for 10 - 15 min. After this treatment, the outer surface adventitia was easily removed by peeling with forceps. The aorta was then longitudinally cut and laid open and the endothelial layer was removed by scraping.
The medial layer of cells was rinsed in enzyme solution, and placed in a new 100 mm dish with 10 mL of enzyme solution. The aorta was minced using a fine pair of scissors and digested for 2 - 3 h at 37 °C in 30 mL of fresh enzyme solution. After digestion, the tissue was homogenized using a sterile Pasteur pipette with a fire polished tip or an eppendorf pipetter with a 200 - 1000 µL sterile pipette tip. The suspension was then centrifuged for 10 minutes at 8000 rpm and the pellet was suspended in 4 - 6 mL of fresh medium and plated onto 4 - 6 100 mm flasks with vented caps. Cells were allowed to grow to confluence and split using 0.25 % trypsin. Cells were evaluated for purity and overall quality using antibody to SMC actin.
Cells were assayed in early passage (generally passage 3 - 7) at sub-confluent conditions. Cultures were grown in 16 mm (24 well) multi-well culture dishes in medium 199 supplemented with 10% fetal bovine serum and 2% antibiotic/ antimycotic. At sub-confluence, the cells were placed in a defined serum free medium (AIM-V; Gibco) for 24 - 48 h prior to initiating the experimental protocol.
Compounds were added to each well at 50 fold dilution (20 µL / well) and the plates were incubated for 24 - 36 h at 37 °C in 5% CO2. Compounds were initially dissolved in 50% ethanol and serially diluted into media. Compounds were routinely assayed at concentrations from 1 to 100 µM. As a control, grade II porcine intestinal mucosal heparin (sodium salt) from Sigma (H-7005) was routinely assayed in all cell preparations at concentrations from 0.1 to 100 µg/mL.
At the completion of the experiment, plates were placed on ice, washed three times with ice cold phosphate buffered saline (PBS) and incubated in ice cold 10% trichloroacetic acid (TCA) for 30 minutes to remove acid soluble proteins. Solution was transferred to scintillation vials containing 0.4 N HCl (500 µL/vial to neutralize NaOH) and each well was rinsed two times with water (500 µL) for a total volume of 2 mL/vial.
Data was obtained, in triplicate, for both control and experimental samples. Control (100%) data was obtained from maximally stimulated cells, as the result of growth factor or serum stimulation. Experimental data was obtained from cells maximally stimulated with growth factor or serum and treated with compound. Data was expressed as a percent of control from which a percent inhibition or IC50 could be determined.

[2] = test system: Porcine Smooth Muscle Cell; experiment: Cytotoxicity, MTT assay; type: cell-based; conditions: up to 100 µg/mL; 24 h, medium without serum
Description: Briefly, cells were again grown in 24 well plates to 70 - 80 % confluency and, as before, serum deprived for 24 - 48 h prior to initiation of the experimental protocol. To insure that the MTT assay monitored toxicity rather than proliferation, cells were incubated with 100 µg/mL of drug in fresh medium without serum for 24 h at 37 °C in a humidified CO2 incubator. Upon completion of the compound treatment, MTT (3-[4,5-dimethylthiazol-2-yl]-2,5-diphenyltetrazolium bromide) indicator dye was added for 4 h at 37 °C. Cells were then lysed and aliquots from each well were transferred to a 96 well plate for analysis. Absorbance at 570 nm wavelength with a reference wavelength of 630 nm was recorded using an ELISA plate reader. Results were determined as percent viable using no drug (100% viable) and pre-solubilization (0% viable) standards.

[3] = test system: normal human plasma; experiment: Anticoagulant activity, partial thromboplastin time (APTT) assay; type: biochemical; conditions: human citrated plasma
Description: The anticlotting activity of the compounds of this invention was evaluated in a partial thromboplastin time (APTT) assay using normal human plasma collected from 5 donors according to the procedure of Fenichel et. al. (Clin. Chem. 1964, 10, 69). A BBL Fibrometer automatic precision coagulation timer utilizing a 0.3 mL probe was employed. An Ellagic acid activated partial thromboplastin was used for these experiments. This reagent was added to human citrated plasma equilibrated at 37 °C in a plastic well in the clot timer. Calcium at 37 °C was added, the clot timer was started and the time for fibrin clot formation (in seconds) was recorded. The effect of the compounds, added to plasma, over a concentration of 12.5 - 200 µg/mL was determined. […] An unfractionated heparin comparator was used over the concentration range of 1.25 - 10 µg/mL. Clotting tests at all concentrations were run in triplicate. Analysis of variance for a randomized block design was used to determine the significance of differences observed in the clotting times. […]

[4] = Sus scrofa, read-out: Porcine Smooth Muscle Cell Antiproliferation (% Inhibition at x concentration)

## CC(=O)OC[C@H]1O[C@@H](OCc2ccc(C)c(NC(=O)c3cccc([N+](=O)[O-])c3)c2)[C@H](OC(C)=O)[C@@H](OC(C)=O)[C@@H]1OC(C)=O [Example 1, N-[2-Methyl-5-(2,3,4,6-tetra-O-acetyl-β-D-glucopyranosyloxymethyl)phenyl]-3-nitrobenzamide]
[1]; [4]
  inhibition at 50 µg/mL: 79%

## CC(=O)OC[C@H]1O[C@H](O[C@H]2[C@H](OC(C)=O)[C@@H](OC(C)=O)[C@H](OCc3ccc(C)c(NC(=O)CCC4CCCC4)c3)O[C@@H]2COC(C)=O)[C@H](OC(C)=O)[C@@H](OC(C)=O)[C@@H]1OC(C)=O [Example 16, N-[5-(Hepta-O-acetyl-β-D-maltosyloxymethyl)-2-methylphenyl]-3-cyclopentylpropionamide]
[2]
  toxicity (MTT, percent viable): no toxicity

## CC(=O)OC[C@H]1O[C@H](O[C@H]2[C@H](OC(C)=O)[C@@H](OC(C)=O)[C@H](OCc3ccc(N)c(C)c3)O[C@@H]2COC(C)=O)[C@H](OC(C)=O)[C@@H](OC(C)=O)[C@@H]1OC(C)=O [Example 29, 4-(Hepta-O-acetyl-β-D-maltosyloxymethyl)-2-methylphenylamine]
[1]; [4]
  inhibition at 40 µM: 70%

## CCC(=O)Nc1cc(CO[C@@H]2O[C@H](COC(C)=O)[C@@H](O[C@H]3O[C@H](COC(C)=O)[C@@H](OC(C)=O)[C@H](OC(C)=O)[C@H]3OC(C)=O)[C@H](OC(C)=O)[C@H]2OC(C)=O)ccc1C [Example 11, N-[5-(Hepta-O-acetyl-β-D-maltosyloxymethyl)-2-methylphenyl]propionamide]
[3]
  anticoagulant activity (APTT assay): no anticoagulant activity
[2]
  toxicity (MTT, percent viable): no toxicity

## Butane-1-sulfonic Acid N-[5-(Hepta-O-acetyl-β-D-maltosyloxymethyl)-2-methylphenyl]amide [Example 28]
[1]
  IC50: 9 µM

## N-{3-[2-(Hepta-O-acetyl-β-D-maltosyloxymethyl)-6-methylphenylcarbamoyl]phenyl}-3,5-di-tert-butyl-4-hydroxybenzamide [Example 7]
[1]
  IC50: 185 µM

## CC(=O)OC[C@H]1O[C@H](O[C@H]2[C@H](OC(C)=O)[C@@H](OC(C)=O)[C@H](OCc3ccc(C)c(NC(=O)C4CC4)c3)O[C@@H]2COC(C)=O)[C@H](OC(C)=O)[C@@H](OC(C)=O)[C@@H]1OC(C)=O [Example 14, Cyclopropanecarboxylic Acid N-[5-(Hepta-O-acetyl-β-D-maltosyloxymethyl)-2-methylphenyl]amide]
[2]
  toxicity (MTT, percent viable): no toxicity

## CC(=O)Nc1cccc(C(=O)Nc2cc(CO[C@@H]3O[C@H](COC(C)=O)[C@@H](O[C@H]4O[C@H](COC(C)=O)[C@@H](OC(C)=O)[C@H](OC(C)=O)[C@H]4OC(C)=O)[C@H](OC(C)=O)[C@H]3OC(C)=O)ccc2C)c1 [Example 6, 3-Acetylamino-N-[5-(hepta-O-acetyl-β-D-maltosyloxymethyl)-2-methylphenyl]benzamide]
[2]
  toxicity (MTT, percent viable): no toxicity

## CCC(=O)OC[C@H]1O[C@H](O[C@H]2[C@H](OC(=O)CC)[C@@H](OC(=O)CC)[C@H](OCc3ccc(C)c(N(C(=O)CC)S(=O)(=O)c4ccc(N(C(=O)CC)S(C)(=O)=O)cc4)c3)O[C@@H]2COC(=O)CC)[C@H](OC(=O)CC)[C@@H](OC(=O)CC)[C@@H]1OC(=O)CC [Example 33, N-Propionyl-4-[propionyl(methanesulfonyl)amino]-N-[5-(hepta-O-propionyl-β-D-maltosyloxymethyl)-2-methylphenyl]benzenesulfonamide]
[1]; Sus scrofa, at 20 µM, read-out: Porcine Smooth Muscle Cell Antiproliferation (% Inhibition at x concentration)
  inhibition at 20 µM: 30%

## CC(=O)OC[C@H]1O[C@@H](OCc2ccc(C)c(NC(=O)c3cccc(N)c3)c2)[C@H](OC(C)=O)[C@@H](OC(C)=O)[C@@H]1OC(C)=O [Example 2, 3-Amino-N-[2-methyl-5-(2,3,4,6-tetra-O-acethyl-β-D-glucopyranosyloxymethyl)phenyl]benzamide]
[1]; [4]
  inhibition at 50 µg/mL: 23%

## CC(=O)OC[C@H]1O[C@H](O[C@H]2[C@H](OC(C)=O)[C@@H](OC(C)=O)[C@H](OCc3ccc(C)c(NC(=O)C4CCCC4)c3)O[C@@H]2COC(C)=O)[C@H](OC(C)=O)[C@@H](OC(C)=O)[C@@H]1OC(C)=O [Example 15, Cyclopentanecarboxylic Acid N-[5-(Hepta-O-acetyl-β-D-maltosyloxymethyl)-2-methylphenyl]amide]
[2]
  toxicity (MTT, percent viable): no toxicity

## CC(=O)OC[C@H]1O[C@H](O[C@H]2[C@H](OC(C)=O)[C@@H](OC(C)=O)[C@H](OCc3ccc(C)c(NC(=O)c4cccc([N+](=O)[O-])c4)c3)O[C@@H]2COC(C)=O)[C@H](OC(C)=O)[C@@H](OC(C)=O)[C@@H]1OC(C)=O [Example 4, N-[5-(Hepta-O-acetyl-β-D-maltosyloxymethyl)-2-methylphenyl]-3-nitrobenzamide]
[1]; [4]
  inhibition at 50 µg/mL: 13%

## CC(=O)OC[C@H]1O[C@H](O[C@H]2[C@H](OC(C)=O)[C@@H](OC(C)=O)[C@H](OCc3ccc(C)c(NS(=O)(=O)c4ccc(C)cc4)c3)O[C@@H]2COC(C)=O)[C@H](OC(C)=O)[C@@H](OC(C)=O)[C@@H]1OC(C)=O [Example 24, N-[5-(Hepta-O-acetyl-β-D-maltosyloxymethyl)-2-methylphenyl]-4-methylbenzenesulfonamide]
[1]; [4]
  inhibition at 40 µM: 61%

## CC(=O)OC[C@H]1O[C@H](O[C@H]2[C@H](OC(C)=O)[C@@H](OC(C)=O)[C@H](OCc3ccc(C)c(N)c3)O[C@@H]2COC(C)=O)[C@H](OC(C)=O)[C@@H](OC(C)=O)[C@@H]1OC(C)=O [Example 3, 5-(Hepta-O-acetyl-β-maltosyloxymethyl)-2-methylphenylamine]
[3]
  anticoagulant activity (APTT assay): no anticoagulant activity
[2]
  toxicity (MTT, percent viable): no toxicity

## CC(=O)OC[C@H]1O[C@H](O[C@H]2[C@H](OC(C)=O)[C@@H](OC(C)=O)[C@H](OCc3ccc(N(S(=O)(=O)c4ccc([N+](=O)[O-])cc4)S(=O)(=O)c4ccc([N+](=O)[O-])cc4)c(C)c3)O[C@@H]2COC(C)=O)[C@H](OC(C)=O)[C@@H](OC(C)=O)[C@@H]1OC(C)=O [Example 31, N-[4-(Hepta-O-acetyl-β-D-maltosyloxymethyl)-2-methylphenyl]-4-nitro-N-(4-nitrophenylsulfonyl)benzenesulfonamide]
[1]; Sus scrofa, at 100 µM, read-out: Porcine Smooth Muscle Cell Antiproliferation (% Inhibition at x concentration)
  inhibition at 100 µM: 37%

## CC(=O)OC[C@H]1O[C@H](O[C@H]2[C@H](OC(C)=O)[C@@H](OC(C)=O)[C@H](OCc3ccc(C)c(NC(=O)c4cccc(N)c4)c3)O[C@@H]2COC(C)=O)[C@H](OC(C)=O)[C@@H](OC(C)=O)[C@@H]1OC(C)=O [Example 5, N-[5-(Hepta-O-acetyl-β-D-maltosyloxymethyl)-2-methylphenyl]-3-aminobenzamide]
[1]; [4]
  inhibition at 50 µg/mL: 44%
